Patent US20080207605A1, “Combination therapy for the treatment of liver diseases” (priority 2007, published 2008)
pEC50, pIC50: −log10 of the molar value.

Key:
male C57B1/6 mice [1] = assay: TNF-α model of liver injury (TNFα/D-Gln), plasma ALT activity; format: in vivo; settings: PO by gavage 30 minutes before D-Gln/TNFα insult; blood 6 hours later; average from 4 studies
Protocol: (§1) TNF-α is a cytokine that is implicated in inducing liver injury in a variety of acute and chronic liver diseases such as chronic HCV and acute liver failure. An exemplary in vivo model to test pharmacological agents against TNF-α induced injury is the TNF-α/D-Gal model of liver injury in mice. In this model, mice are treated with TNF-α/D-Gal and compound is administered to evaluate its ability to protect against liver damage. The compound is administered either before, at the time of or after the treatment with TNF-α/D-Gal, and followed for a period of approximately 6 hours. Allowing this model to persist past 6 hours is a variation used to determine the improved survival afforded by compound treatment.
(§2) In vivo efficacy of RO-113-0830 was assessed using male C57B1/6 mice (Simonsen Labs) in two well-established models of liver damage. The mice were allowed to acclimate for at least three days.
In the TNF-α model of liver injury, D-Galactosamine (D-Gln) (800 mg/kg) and TNFα (20 or 40 μg/kg) were injected IP. RO-113-0830 (0.001-30 mg/kg) was administered PO by gavage 30 minutes before insult. Six hours later, animals were anesthetized with Nembutal (50 mg/kg IP), and blood was taken by cardiac puncture. Plasma ALT activity was determined using a kit from Sigma-Aldrich.

male C57B1/6 mice [2] = assay: TNF-α model (TNFα/D-Gln), 24 hour survival; format: in vivo; settings: TNFα/D-Gln insult; average from 3 studies; p=0.03 vs control (27±7.3%)
Protocol: as §1, §2
To determine a benefit on survival, TNF-α model, D-Galactosamine (D-Gln) (800 mg/kg) and TNF-α (20 or 40 μg/kg) were injected IP, and mice were allowed to survive for 24 hours post insult. All morbid mice were euthanized with 125 mg/kg of Nembutal IP. The average 24 hour survival from 3 studies was 27±7.3% and. 55±7.6% (p=0.03) in the TNFα/D-Gln control mice and RO-113-0830-treated mice, respectively.

male C57B1/6 mice [3] = assay: Fas driven model of liver damage (Jo-2 antibody), plasma ALT activity; format: in vivo; settings: 10 mg/kg PO; 6 hours after Jo-2 IV; average of 2 studies; p<0.05 in each study
Protocol: as §2
In a Fas driven model of liver damage, an activating antibody to Fas (Jo-2) was administered IV. Six hours later, animals were anesthetized with Nembutal (50 mg/kg IP), and blood was taken by cardiac puncture. Plasma ALT activity was determined using a kit from Sigma-Aldrich.

full-length HCV replicon = assay: HCV RNA replicon antiviral evaluation assay; format: cell-based, Hepatitis C virus; settings: 72 hr; HCV RNA replicon levels by TaqMan RT-PCR; read-out: EC50 (concentration inhibition virus replication by 50%)
Protocol: The assay was conducted as described by Pietschmann, T. et al., supra.
Human interferon alpha-2b was included in each run as a positive control compound. Subconfluent cultures of the ET line were plated out into 96-well plates that were dedicated for the analysis of cell numbers (cytotoxicity) or antiviral activity and the next day drugs were added to the appropriate wells. Cells were processed 72 hr later when the cells were still sub-confluent. HCV RNA replicon levels and the toxic concentration of drug that reduces cell numbers, as indicated by host cell ribosomal RNA (rRNA) levels, were assessed by TaqMan RT-PCR. The EC50 (concentration inhibition virus replication by 50%), IC50 (concentration decreasing cell viability by 50%) and S150 (selective index: IC50/EC50) values were calculated.

[4] = test system: Huh7 human hepatoma cell line (the 21-5 cell line); settings: read-out: IC50 for cytotoxicity (concentration decreasing cell viability by 50%); 72 hr; host cell rRNA levels by TaqMan RT-PCR
Text: Cells were processed 72 hr later when the cells were still sub-confluent.

C57/BL6 wild-type mice = assay: Bile duct ligation model of liver fibrosis; format: in vivo; settings: 10 mg/kg by gavage once a day
Protocol: The bile duct ligation model is a well characterized model of liver fibrosis. Briefly, C57/BL6 wild-type mice 6 to 8 weeks of age were subjected to bile duct ligation (BDL) for 14 days: Sham-operated wild type mice were used as controls. Either RO 113-0830 or CMC (carboxymethylcellulose) were administered by gavage in a dose of 10 mg/kg body weight once a day. Hepatocyte apoptosis was quantified by the TUNEL assay and immunofluorescence for activated caspases 3/7. Liver injury was assessed by histopathology, and quantification of bile infarcts. Hepatic fibrosis was assessed by Sirius red staining and quantitative morphometry. Real-time polymerase chain reaction (PCR) was used to measure mRNA transcripts for collagen 1alpha (I) and alpha-smooth muscle actin.

O=C(NO)C1(CS(=O)(=O)c2ccc(Oc3ccc(Cl)cc3)cc2)CCOCC1 [RO-113-0830]
ED50 for decrease of plasma ALT activity (male C57B1/6 mice [1]): 0.26 ± 0.08 mg/kg | 24 hour survival (male C57B1/6 mice [2]): 55±7.6% | reduction of Fas-induced elevation in plasma ALT activity (male C57B1/6 mice [3]): 50% | pEC50 (full-length HCV replicon): 7.15 | pIC50 [4]: ~4.60 | reduction of Sirius red staining of hepatic collagen (C57/BL6 wild-type mice; 14 days of BDL): 3 fold | reduction in the number of bile infarcts vs vehicle treated BDL mice (C57/BL6 wild-type mice; 14 days of BDL, histologic examination): > 70% | decrease in TUNEL-positive hepatocytes vs vehicle (C57/BL6 wild-type mice; 14 days of BDL, p<0.01): 3 fold | decrease in caspase 3/7-positive hepatocytes vs vehicle (C57/BL6 wild-type mice; 14 days of BDL, p<0.01): 5 fold | reduction of hepatic alpha-smooth muscle actin mRNA vs vehicle-treated BDL animals (C57/BL6 wild-type mice; 14 days of BDL, real-time PCR): > 60% | reduction of hepatic collagen I mRNA vs vehicle-treated BDL animals (C57/BL6 wild-type mice; 14 days of BDL, real-time PCR): > 60% | overall animal survival following 14 days of BDL (C57/BL6 wild-type mice; p<0.05): significantly enhanced
